The RepoRT retention time repository (doi:10.1007/s11306-011-0298-z)

test: RP, Waters ACQUITY UPLC HSS T3, 100 × 2.1 mm, 1.8 µm, 30 °C, 0.3 mL/min, estimated dead time 0.73 min; A: water + 0.1% formic acid, pH 3; B: methanol + 0.1% formic acid, pH 3; gradient (min/%B) 0/0 6/0 56/100 60/100; settings: stereoisomer not certain

| Structure (SMILES) | LC retention time [min] |
| --- | --- |
| Oc1ccc(C=Cc2cc(O)cc3c2C(c2cc(O)cc(O)c2)C(c2ccc(O)cc2)O3)cc1 (configuration not stated) | 33.5 |
| OCC1OC(Oc2ccccc2)C(O)C(O)C1O (configuration not stated) | 16.4 |
| Nc1ncnc2c1ncn2C1OC(COP(=O)(O)O)C(O)C1O (configuration not stated) | 4.08 |
| OCC(O)C(O)CO (racemic) | 1.41 |
| CC(C)CCCC(C)C1CCC2C3CC4OC45CC(O)CCC5(C)C3CCC12C (racemic) | 57.7 |
| CC1=CCCC(C)(C)C12CCC(C)O2 (racemic) | 48.1 |
| O=C(C=Cc1ccc(O)c(O)c1)OC1CC(OC(=O)C=Cc2ccc(O)c(O)c2)(C(=O)O)CC(O)C1O (configuration not stated) [1,3 - dicaffeoylquinic acid] | 24.9 |
| NCCCN [1,3 diaminopropane] | 1 |
| NCCCCN [1,4-diaminobutane] | 1.1 |
| O=C(O)Cc1c[nH]c2ccccc12 [1H-indol-3-ylacetic acid] | 26.6 |
| Nc1nc2c(ncn2C2CC(O)C(COP(=O)(O)O)O2)c(=O)[nH]1 (configuration not stated) [2'-deoxyguanosine-5'-phosphate] | 7.99 |
| O=C(O)c1c(O)cccc1O [2,6-dihydroxybenzoic acid] | 16.9 |
| O=C(O)C(=O)C(O)C(O)C(O)CO [2-keto-D-gluconic acid] | 1.4 |
| C=Cc1ccc(O)c(OC)c1 [2-methoxy-4-vinylphenol] | 31.3 |
| CCC(C)CN (configuration not stated) [2-methylbutylamine] | 6.5 |
| CC(C)C(=O)OCCOc1ccccc1 [2-phenoxyethyl isobutyrate] | 40.2 |
| O=C1CCCN1 [2-pyrrolidinone] | 5.9 |
| O=Cc1ccc(O)c(O)c1 [3,4 dihydroxybenzaldehyde] | 16.2 |
| O=C(O)c1cc(O)cc(O)c1 [3,5-dihydroxybenzoic acid] | 14.3 |
| CCOc1cc(C=O)ccc1O [3-ethoxy-4-hydroxybenzaldehyde] | 27.2 |
| CC(O)(CC(=O)O)CC(=O)O [3-hydroxy-3-methyl glutaric acid] | 7.04 |
| O=Cc1cccc(O)c1 [3-hydroxybenzaldehyd] | 20.3 |
| Cc1c[nH]c2ccccc12 [3-methyl indole] | 34.1 |
| CC(=O)CCc1ccc(O)cc1 [4-(4-hydroxyphenyl)butan-2-one] | 24.6 |

| Structure (SMILES) | LC retention time [min] |
| --- | --- |
| Nc1ccc(C(=O)O)cc1 [4-aminobenzoic acid] | 12.3 |
| CN(C)c1ccc(C=CC=O)cc1 [4-dimethylaminocinnamaldehyde] | 34.5 |
| O=C(O)c1ccc(O)cc1 [4-hydroxybenzoic acid] | 17.5 |
| O=c1cc(O)c2ccccc2o1 [4-hydroxycoumarin] | 24.2 |
| Cc1cc(=O)oc2cc(O)ccc12 [4-methylumbelliferone] | 27.8 |
| Oc1ccc(C=Cc2ccccc2)cc1 [4-stilbenol] | 41.8 |
| O=Cc1ccc(CO)o1 [5-hydroxymethyl-2-furaldehyde] | 11.9 |
| Cc1ccc(C=O)o1 [5-methyl furfural] | 20.3 |
| COc1ccc2oc(-c3ccccc3)cc(=O)c2c1 [6-methoxyflavone] | 42.9 |
| CCCCCC(O)C=CC=CCC=CCC=CCCCC(=O)O [15(S)hydroxy-(5Z,8Z,11Z,13E)-eicosatetraenoic acid] | 50.4 |
| CC(C)=C1CCC(C)CC1=O [(R)-(+)-pulegone] | 38.9 |
| COc1cc(C(C)=O)ccc1O [Acetovanillone] | 23.9 |
| O=C(O)CC(Nc1ncnc2c1ncn2C1OC(COP(=O)(O)O)C(O)C1O)C(=O)O (configuration not stated) [Adenylosuccinic acid] | 12.7 |
| NC(=O)CCCCC1CCSS1 (stereo not drawn) [Alpha lipoamide] | 29 |
| CCCCCCCCCCCCCCCCCC(=O)OCCCC [Butyl stearate] | 59.5 |
| OCC1OC(OC2C(Oc3cc4c(O)cc(O)cc4[o+]c3-c3ccc(O)c(O)c3)OC(CO)C(O)C2O)C(O)C(O)C1O (configuration not stated) [Cyanidin 3-sophoroside] | 21.4 |
| OCc1ccccc1OC1OC(CO)C(O)C(O)C1O (stereo not drawn) [D(-)-Salicin] | 16.1 |
| O=C(CO)C(O)C(O)C(O)CO (stereo not drawn) [D(-)fructose] | 1.4 |
| C[C@@H](O)[C@H](O)[C@H](O)[C@@H](O)C=O [D-(+)-fucose] | 1.8 |
| OCC1OC(OC2OC(CO)C(O)C(O)C2O)C(O)C(O)C1O [D-(+)-trehalose] | 1.5 |
| O=C[C@H](O)[C@@H](O)[C@@H](O)[C@H](O)C(=O)O [D-(+)galacturonic acid] | 1.33 |
| OCC1OC(O)C(O)C1O [D-(-)-Ribose] | 1.4 |
| CC(C)(CO)C(O)C(=O)NCCC(=O)O [D-pantothenic acid] | 14.3 |
